The record followed here is US20060178382A1, “Chinazoline derivatives as aurora kinase inhibitors” (AstraZeneca AB, priority 2003, published 2006).

In one test the target is T1, Aurora-A kinase (Homo sapiens, UniProt O14965).
T1 construct: 6 histidine tag with spacer region and rTEV protease cleavage site (pFastBac HTc) (N); made in house; host or cells: Spodoptera frugiperda Sf21 insect cells (baculovirus)
T1 sequence (O14965 1-403): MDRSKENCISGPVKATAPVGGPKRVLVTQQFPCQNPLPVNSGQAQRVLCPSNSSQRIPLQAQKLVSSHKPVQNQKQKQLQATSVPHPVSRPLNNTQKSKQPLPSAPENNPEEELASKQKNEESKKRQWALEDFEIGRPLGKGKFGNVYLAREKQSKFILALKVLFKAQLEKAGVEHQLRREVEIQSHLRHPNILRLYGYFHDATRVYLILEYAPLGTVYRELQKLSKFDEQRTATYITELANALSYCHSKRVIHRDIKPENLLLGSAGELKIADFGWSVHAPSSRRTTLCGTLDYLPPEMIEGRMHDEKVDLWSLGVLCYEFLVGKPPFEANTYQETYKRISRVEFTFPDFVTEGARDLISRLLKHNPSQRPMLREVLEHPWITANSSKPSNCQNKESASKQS
The experiment in a line: In vitro Aurora-A kinase inhibition test. The test is classed as biochemical.

In the next test the target is T2, Aurora-B kinase (Homo sapiens, UniProt Q96GD4).
T2 construct: 6-histidine tag; made in house; host or cells: Spodoptera frugiperda Sf21 insect cells (baculovirus)
T2 sequence (Q96GD4 whole entry): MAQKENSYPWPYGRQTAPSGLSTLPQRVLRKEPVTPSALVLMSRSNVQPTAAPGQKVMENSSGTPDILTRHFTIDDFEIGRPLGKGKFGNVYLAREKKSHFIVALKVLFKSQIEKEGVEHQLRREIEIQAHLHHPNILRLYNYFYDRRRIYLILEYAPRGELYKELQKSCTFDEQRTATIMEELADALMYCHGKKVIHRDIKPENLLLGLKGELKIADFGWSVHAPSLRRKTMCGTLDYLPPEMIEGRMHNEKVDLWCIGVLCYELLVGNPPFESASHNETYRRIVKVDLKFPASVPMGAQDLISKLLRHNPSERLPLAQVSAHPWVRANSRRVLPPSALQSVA
The experiment in a line: In vitro Aurora-B kinase inhibition test. As to conditions: recombinant Aurora-B, [γ33P]ATP, peptide substrate, 60 minutes room temperature; read-out: concentration giving 50% inhibition of enzyme activity. Format: biochemical. The source says: (b) In Vitro Aurora-B Kinase Inhibition Test
This assay determines the ability of a test compound to inhibit serine-threonine kinase activity. DNA encoding Aurora-B may be obtained by total gene synthesis or by cloning. This DNA may then be expressed in a suitable expression system to obtain polypeptide with serine-threonine kinase activity. In the case of Aurora-B, the coding sequence was isolated from cDNA by polymerase chain reaction (PCR) and cloned into the pFastBac system in a manner similar to that described above for Aurora-A (i.e. to direct expression of a 6-histidine tagged Aurora-B protein).
For the large scale expression of Aurora-B kinase activity, Sf21 insect cells were grown at 28° C. in TC100 medium supplemented with 10% foetal calf serum (Viralex) and 0.2% F68 Pluronic (Sigma) on a Wheaton roller rig at 3 r.p.m. When the cell density reached 1.2×10^6 cells ml^−1 they were infected with plaque-pure Aurora-B recombinant virus at a multiplicity of infection of 1 and harvested 48 hours later. All subsequent purification steps were performed at 4° C. […]

For the compound `COc1cc2c(Nc3cn(CC(=O)Nc4cccc(F)c4)nn3)ncnc2cc1OCCCCl` [Compound 1, 2-(4-{[7-(3-chloropropoxy)-6-methoxyguinazolin-4-yl]amino}-1H-1,2,3-triazol-1-yl)-N-(3-fluorophenyl)acetamide], the IC50 was determined as 900 nM on Aurora-A kinase and 100 nM on Aurora-B kinase.
For the compound `CCCN(CCO)CCCOc1cc2ncnc(Nc3cn(CC(=O)Nc4cccc(F)c4)nn3)c2cc1OC` [Compound 4, N-(3-fluorophenyl)-2-{4-[(7-{3-[(2-hydroxyethyl)(propyl)amino]propoxy}-6-methoxyquinazolin-4-yl)amino]-1H-1,2,3-triazol-1-yl}acetamide], the IC50 at Aurora-A kinase amounted to 500 nM; on Aurora-B kinase, 100 nM.
